According to patent US20240270762A1, “PENICILLIN-BINDING PROTEIN INHIBITORS” (priority 2021, published 2024):
Read-outs that look alike come from different tables or passages of the source.

Legend:
[1] = molecular target: T1, PBP1a from Acinetobacter baumannii (ATCC 19606) (Acinetobacter baumannii, UniProt A0ABX6CK30); assay: Bocillin-FL fluorescence polarization competition binding, A. baumannii PBP1a; conditions: fluorescence polarization competition binding assay using Bocillin-FL; read-out: A. baumannii PBP1a Potency
T1 sequence (A0ABX6CK30 1-851): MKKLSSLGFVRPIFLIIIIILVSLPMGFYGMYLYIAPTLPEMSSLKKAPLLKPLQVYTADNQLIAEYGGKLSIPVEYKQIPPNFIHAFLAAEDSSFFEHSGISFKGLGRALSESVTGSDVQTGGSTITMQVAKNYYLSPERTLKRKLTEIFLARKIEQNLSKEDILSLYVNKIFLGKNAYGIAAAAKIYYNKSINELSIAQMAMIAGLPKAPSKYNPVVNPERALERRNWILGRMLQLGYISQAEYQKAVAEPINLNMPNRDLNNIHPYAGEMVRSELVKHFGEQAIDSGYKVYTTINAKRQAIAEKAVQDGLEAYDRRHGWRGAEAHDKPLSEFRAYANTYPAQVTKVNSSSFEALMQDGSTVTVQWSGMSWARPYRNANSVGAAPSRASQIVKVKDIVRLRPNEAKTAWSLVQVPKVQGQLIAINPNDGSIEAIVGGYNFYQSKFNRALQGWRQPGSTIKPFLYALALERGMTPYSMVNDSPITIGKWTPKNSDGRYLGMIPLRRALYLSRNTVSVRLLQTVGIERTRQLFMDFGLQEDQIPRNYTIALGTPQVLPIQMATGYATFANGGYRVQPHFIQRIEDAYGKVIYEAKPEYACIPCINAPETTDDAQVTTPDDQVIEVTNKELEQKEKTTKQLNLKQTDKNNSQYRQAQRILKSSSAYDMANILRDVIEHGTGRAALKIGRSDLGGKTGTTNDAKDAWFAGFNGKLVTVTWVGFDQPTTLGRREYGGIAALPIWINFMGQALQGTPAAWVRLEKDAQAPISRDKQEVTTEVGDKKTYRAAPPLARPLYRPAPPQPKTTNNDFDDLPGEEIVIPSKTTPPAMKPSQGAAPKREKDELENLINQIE
Outline: (§1)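 Purified PBP was preincubated with inhibitor (E. coli PBP3 1.5 μM, 30 min; P. aeruginosa PBP3 0.75 μM, A. baumannii PBP3 0.2 μM and PBP1a 1 μM, 15 min), then Bocillin-FL (0.1 μM; 0.05 μM for PBP1a) added and FP read up to 60 min. EC50 = 50% loss of bound probe.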

[2] = molecular target: T2, PBP3 from Acinetobacter baumannii (ATCC 19606) (Acinetobacter baumannii, UniProt A0ABX6CK25); assay: Bocillin-FL fluorescence polarization competition binding, A. baumannii PBP3; conditions: fluorescence polarization competition binding assay using Bocillin-FL; read-out: A. baumannii PBP3 Potency
T2 sequence (A0ABX6CK25 64-610): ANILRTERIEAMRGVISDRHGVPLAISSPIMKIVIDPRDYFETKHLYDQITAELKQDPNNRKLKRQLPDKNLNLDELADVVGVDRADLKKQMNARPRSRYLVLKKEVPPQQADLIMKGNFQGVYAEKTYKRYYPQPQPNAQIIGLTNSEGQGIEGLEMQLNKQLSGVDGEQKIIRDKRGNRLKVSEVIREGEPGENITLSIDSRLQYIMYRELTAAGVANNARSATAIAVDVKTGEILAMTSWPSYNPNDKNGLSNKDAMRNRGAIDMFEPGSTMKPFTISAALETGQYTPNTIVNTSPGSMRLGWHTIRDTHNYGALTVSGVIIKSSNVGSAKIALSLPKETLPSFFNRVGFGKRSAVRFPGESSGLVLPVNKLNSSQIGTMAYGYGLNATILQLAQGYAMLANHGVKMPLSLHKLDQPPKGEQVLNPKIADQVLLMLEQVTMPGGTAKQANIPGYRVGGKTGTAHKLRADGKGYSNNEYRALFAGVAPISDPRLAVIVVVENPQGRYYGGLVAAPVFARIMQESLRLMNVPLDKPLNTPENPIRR
Outline: as §1

N. gonorrhoeae WHO L = assay: Liquid broth MIC in Fastidious broth; conditions: Neisseria gonorrhoeae
[3] = read-out: Minimum Inhibitory Concentration, WHO L
[4] = read-out: Minimum Inhibitory Concentration (MIC), N. gonorrhoeae WHO L

## O=C(NCCCS(=O)(=O)N1CCN(C(=O)NC(C(=O)N[C@H]2Cc3ccc(F)c(C(=O)O)c3OB2O)c2cc(F)c(O)c(O)c2Cl)C1=O)c1cccnc1 (stereo partly drawn) [Example 273, (3R)-3-(2-(2-chloro-5-fluoro-3,4-dihydroxyphenyl)-2-(3-((3-(nicotinamido)propyl)sulfonyl)-2-oxoimidazolidine-1-carboxamido)acetamido)-7-fluoro-2-hydroxy-3,4-dihydro-2H-benzo[e][1,2]oxaborinine-8-carboxylic acid]
[1]
  IC50: > 250 µM
[2]
  IC50: < 10 µM
N. gonorrhoeae WHO L; [3]
  MIC: > 64 µg/mL

## O=C(NCCCS(=O)(=O)N1CCN(C(=O)N[C@@H](C(=O)N[C@H]2Cc3ccc(F)c(C(=O)O)c3OB2O)c2cc(F)c(O)c(O)c2Cl)C1=O)c1cccc(O)c1 [Example 271, (R)-3-((R)-2-(2-chloro-5-fluoro-3,4-dihydroxyphenyl)-2-(3-((3-(3-hydroxybenzamido)propyl)sulfonyl)-2-oxoimidazolidine-1-carboxamido)acetamido)-7-fluoro-2-hydroxy-3,4-dihydro-2H-benzo[e][1,2]oxaborinine-8-carboxylic acid]
[1]
  IC50: > 250 µM
[2]
  IC50: < 10 µM
N. gonorrhoeae WHO L; [3]
  MIC: > 64 µg/mL

## O=C(NCCCN1CCN(C(=O)N[C@@H](C(=O)N[C@H]2Cc3ccc(F)c(C(=O)O)c3OB2O)c2cc(F)c(O)c(O)c2Cl)C1=O)Nc1cccc(O)c1 [Example 258, (R)-3-((R)-2-(2-chloro-5-fluoro-3,4-dihydroxyphenyl)-2-(3-(3-(3-(3-hydroxyphenyl)ureido)propyl)-2-oxoimidazolidine-1-carboxamido)acetamido)-7-fluoro-2-hydroxy-3,4-dihydro-2H-benzo[e][1,2]oxaborinine-8-carboxylic acid]
[1]
  IC50: > 250 µM
[2]
  IC50: < 10 µM
N. gonorrhoeae WHO L; [3]
  MIC: > 64 µg/mL

## O=C(CN1CCN(C(=O)NC(C(=O)N[C@H]2Cc3ccc(F)c(C(=O)O)c3OB2O)c2cc(F)c(O)c(O)c2Cl)C(=O)C1=O)NCc1ccccc1 (stereo partly drawn) [Example 238]
[1]
  IC50: > 250 µM
[2]
  IC50: < 10 µM
N. gonorrhoeae WHO L; [4]
  MIC: > 64 µg/mL

## O=C(CN1CCN(C(=O)NC(C(=O)N[C@H]2Cc3ccc(F)c(C(=O)O)c3OB2O)c2cc(F)c(O)c(O)c2Cl)C(=O)C1=O)Nc1cccnc1 (stereo partly drawn) [Example 234, (3R)-3-(2-(2-chloro-5-fluoro-3,4-dihydroxyphenyl)-2-(2,3-dioxo-4-(2-oxo-2-(pyridin-3-ylamino)ethyl)piperazine-1-carboxamido)acetamido)-7-fluoro-2-hydroxy-3,4-dihydro-2H-benzo[e][1,2]oxaborinine-8-carboxylic acid]
[1]
  IC50: > 250 µM
[2]
  IC50: < 10 µM
N. gonorrhoeae WHO L; [4]
  MIC: > 64 µg/mL

## O=C(NCCN1CCN(C(=O)N[C@@H](C(=O)N[C@H]2Cc3ccc(F)c(C(=O)O)c3OB2O)c2cc(F)c(O)c(O)c2Cl)C(=O)C1=O)Nc1ccncc1 [Example 221, (R)-3-((R)-2-(2-chloro-5-fluoro-3,4-dihydroxyphenyl)-2-(2,3-dioxo-4-(2-(3-(pyridin-4-yl)ureido)ethyl)piperazine-1-carboxamido)acetamido)-7-fluoro-2-hydroxy-3,4-dihydro-2H-benzo[e][1,2]oxaborinine-8-carboxylic acid]
[1]
  IC50: > 250 µM
[2]
  IC50: < 10 µM
N. gonorrhoeae WHO L; [4]
  MIC: > 64 µg/mL

## O=C(NCCCS(=O)(=O)N1CCN(C(=O)NC(C(=O)N[C@H]2Cc3ccc(F)c(C(=O)O)c3OB2O)c2cc(F)c(O)c(O)c2Cl)C1=O)c1ccc(O)cc1 (stereo partly drawn) [Example 269, (3R)-3-(2-(2-chloro-5-fluoro-3,4-dihydroxyphenyl)-2-(3-((3-(4-hydroxybenzamido)propyl)sulfonyl)-2-oxoimidazolidine-1-carboxamido)acetamido)-7-fluoro-2-hydroxy-3,4-dihydro-2H-benzo[e][1,2]oxaborinine-8-carboxylic acid]
[1]
  IC50: > 250 µM
[2]
  IC50: < 10 µM
N. gonorrhoeae WHO L; [3]
  MIC: > 64 µg/mL

## O=C(NCCS(=O)(=O)N1CCN(C(=O)N[C@@H](C(=O)N[C@H]2Cc3ccc(F)c(C(=O)O)c3OB2O)c2cc(F)c(O)c(O)c2Cl)C1=O)c1nccs1 [Example 264, (R)-3-((R)-2-(2-chloro-5-fluoro-3,4-dihydroxyphenyl)-2-(2-oxo-3-((2-(thiazole-2-carboxamido)ethyl)sulfonyl)imidazolidine-1-carboxamido)acetamido)-7-fluoro-2-hydroxy-3,4-dihydro-2H-benzo[e][1,2]oxaborinine-8-carboxylic acid]
[1]
  IC50: > 250 µM
[2]
  IC50: < 10 µM
N. gonorrhoeae WHO L; [3]
  MIC: > 64 µg/mL

## O=C(NCCCN1CCN(C(=O)N[C@H](C(=O)N[C@H]2Cc3ccc(F)c(C(=O)O)c3OB2O)c2cc(F)c(O)c(O)c2Cl)C1=O)c1cccc(O)c1 [Example 254, (R)-3-((S)-2-(2-chloro-5-fluoro-3,4-dihydroxyphenyl)-2-(3-(3-(3-hydroxybenzamido)propyl)-2-oxoimidazolidine-1-carboxamido)acetamido)-7-fluoro-2-hydroxy-3,4-dihydro-2H-benzo[e][1,2]oxaborinine-8-carboxylic acid]
[1]
  IC50: > 250 µM
[2]
  IC50: 10 to 50 µM
N. gonorrhoeae WHO L; [3]
  MIC: > 64 µg/mL

## O=C(NCCN1CCN(C(=O)NC(C(=O)N[C@H]2Cc3ccc(F)c(C(=O)O)c3OB2O)c2cc(F)c(O)c(O)c2Cl)C1=O)c1cccnc1 (stereo partly drawn) [Example 246, (3R)-3-(2-(2-chloro-5-fluoro-3,4-dihydroxyphenyl)-2-(3-(2-(nicotinamido)ethyl)-2-oxoimidazolidine-1-carboxamido)acetamido)-7-fluoro-2-hydroxy-3,4-dihydro-2H-benzo[e][1,2]oxaborinine-8-carboxylic acid]
[1]
  IC50: > 250 µM
[2]
  IC50: < 10 µM
N. gonorrhoeae WHO L; [3]
  MIC: > 64 µg/mL

## O=C(O)c1c(F)ccc2c1OB(O)[C@@H](NC(=O)[C@H](NC(=O)N1CCN(CCNC(=O)[C@@H]3CCCN3)C(=O)C1=O)c1cc(F)c(O)c(O)c1Cl)C2 [Example 229, (R)-3-((R)-2-(2-chloro-5-fluoro-3,4-dihydroxyphenyl)-2-(2,3-dioxo-4-(2-((S)-pyrrolidine-2-carboxamido)ethyl)piperazine-1-carboxamido)acetamido)-7-fluoro-2-hydroxy-3,4-dihydro-2H-benzo[e][1,2]oxaborinine-8-carboxylic acid]
[1]
  IC50: > 250 µM
[2]
  IC50: < 10 µM
N. gonorrhoeae WHO L; [4]
  MIC: > 64 µg/mL

## O=C(NCCN1CCN(C(=O)NC(C(=O)N[C@H]2Cc3ccc(F)c(C(=O)O)c3OB2O)c2cc(F)c(O)c(O)c2Cl)C(=O)C1=O)c1ccncc1 (stereo partly drawn) [Example 216, (3R)-3-(2-(2-chloro-5-fluoro-3,4-dihydroxyphenyl)-2-(4-(2-(isonicotinamido)ethyl)-2,3-dioxopiperazine-1-carboxamido)acetamido)-7-fluoro-2-hydroxy-3,4-dihydro-2H-benzo[e][1,2]oxaborinine-8-carboxylic acid]
[1]
  IC50: > 250 µM
[2]
  IC50: < 10 µM
N. gonorrhoeae WHO L; [4]
  MIC: > 64 µg/mL

## O=C(CN1CCN(C(=O)NC(C(=O)N[C@H]2Cc3ccc(F)c(C(=O)O)c3OB2O)c2cc(F)c(O)c(O)c2Cl)C(=O)C1=O)Nc1nccs1 (stereo partly drawn) [Example 235, (3R)-3-(2-(2-chloro-5-fluoro-3,4-dihydroxyphenyl)-2-(2,3-dioxo-4-(2-oxo-2-(thiazol-2-ylamino)ethyl)piperazine-1-carboxamido)acetamido)-7-fluoro-2-hydroxy-3,4-dihydro-2H-benzo[e][1,2]oxaborinine-8-carboxylic acid]
[1]
  IC50: > 250 µM
[2]
  IC50: < 10 µM
N. gonorrhoeae WHO L; [4]
  MIC: > 64 µg/mL
